# Assay results: ChEMBL document CHEMBL1135337, “Synthesis and DNA binding properties of saturated distamycin analogues” (Bioorg Med Chem Lett, 2002)
# Tested on: Nucleic Acid
# Test: Concentration required for 50% displacement of ethidium bromide from p[dA]p[dT] in a fluorescence intercalator displacement (FID) assay
# Format: nucleic-acid assay
row,C50 [µM],SMILES
1,8.55,N=C(N)CCNC(=O)[C@@H]1C[C@@H](NC(=O)[C@@H]2C[C@@H](NC(=O)[C@@H]3C[C@@H](NC=O)CN3)CN2)CN1
2,4.7,N=C(N)CCNC(=O)[C@H]1C[C@H](NC(=O)[C@H]2C[C@H](NC(=O)C3C[C@H](NC=O)CN3C(=O)OCc3ccccc3)CN2C(=O)OCc2ccccc2)CN1C(=O)OCc1ccccc1 (some centres undefined)
3,0.46,Cn1cc(NC(=O)c2cc(NC(=O)c3cc(NC=O)cn3C)cn2C)cc1C(=O)NCCC(=N)N
4,5.4,N=C(N)CCNC(=O)[C@H]1C[C@H](NC(=O)[C@H]2C[C@H](NC(=O)[C@H]3C[C@H](NC=O)CO3)CO2)CO1
5,6.37,N=C(N)CCNC(=O)[C@H]1C[C@H](NC(=O)[C@H]2C[C@H](NC(=O)[C@H]3C[C@H](NC=O)CN3)CN2)CN1
6,6.7,CN1C[C@@H](NC(=O)[C@H]2C[C@H](NC(=O)[C@H]3C[C@H](NC=O)CN3C)CN2C)C[C@@H]1C(=O)NCCC(=N)N
7,7.91,N=C(N)CCNC(=O)[C@@H]1CC[C@@H](NC(=O)[C@@H]2CC[C@@H](NC(=O)[C@@H]3CC[C@@H](NC=O)C3)C2)C1
8,5.1,N=C(N)CCNC(=O)[C@@H]1C[C@@H](NC(=O)[C@@H]2C[C@@H](NC(=O)[C@@H]3C[C@@H](NC=O)CN3C(=O)OCc3ccccc3)CN2C(=O)OCc2ccccc2)CN1C(=O)OCc1ccccc1
9,5.5,N=C(N)CCNC(=O)[C@@H]1C[C@@H](NC(=O)[C@@H]2C[C@@H](NC(=O)[C@@H]3C[C@@H](NC=O)CO3)CO2)CO1
